The SangsterLogP compilation

test: method code SF, from DOI: 10.1002/jps.2600780616, PMID: 2527297; conditions: pH 7.4

Row | Compound | logD
1 | CS(=O)(=O)c1ccc2oc(N(N)CCC#N)nc2c1 | -0.58
2 | CS(=O)c1ccc2oc(N(N)CCC#N)nc2c1 (centres undefined) | -0.53
3 | CCc1ccc2oc(N(N)CCC#N)nc2c1 | 1.91
4 | CC(C)(C)c1ccc2oc(N(N)CCC#N)nc2c1 | 2.82
5 | N#CCCN(N)c1nc2cc(C(F)(F)F)ccc2o1 | 1.72
6 | N#CCCN(N)c1nc2cc(OCc3ccccc3)ccc2o1 | 2.52
7 | N#CCCN(N)c1nc2cc(C(=O)c3ccccc3)ccc2o1 | 1.94
8 | N#CCCN(N)c1nc2ccccc2o1 | 0.9

Now from value to molecule:

Row | logD | Compound
9 | 1.72 | N#CCCN(N)c1nc2cc(Cl)ccc2o1
10 | 1.48 | Cc1ccc2oc(N(N)CCC#N)nc2c1
11 | 0.42 | N#CCCN(N)c1nc2cc(C#N)ccc2o1
12 | 1.09 | N#CCCN(N)c1nc2cc(F)ccc2o1
13 | 1.5 | CSc1ccc2oc(N(N)CCC#N)nc2c1
14 | 0.98 | COc1ccc2oc(N(N)CCC#N)nc2c1
